The values below come from US8865672B2, “Prevention of tissue ischemia and related methods” (The United States of America, as represented by the …, priority 2006, dated 2014).

Ends that are not written are not given here. * marks the point of attachment. Biotin = O=C1N[C@H]2[C@H](CS[C@H]2CCCCC(=O)*)N1

Assay [1] concerns random myocutaneous flaps in mice. Put plainly: Random myocutaneous (McFarlane) flap model. The assay is classed as in vivo, mouse. To be noted: aged TSP1-null animals, agent in drinking water. As for the experimental part:
WT and TSP1 null mice were matched for sex and age. Under isoflurane inhalation anesthesia 1×2 cm random myocutaneous flaps were raised. Where indicated, animals received either L-NAME (0.5 mg/ml) or ISDN (1 mg/ml) ad libitum in drinking water during the post-operative period. On postoperative day 7, the animals were again anesthetized with inhalation isoflurane and flaps evaluated. Viable and necrotic areas of the flaps were determined by color, refill, eschar, and the pin-prick test. Outlines of viable and nonviable areas were traced using transparent film and the area of flap necrosis versus total flap area determined as described (Yu et al., Proc Natl Acad Sci USA 102:10999-11004, 2005).
Wild type, TSP1 null, CD36 null and CD47 null mice were matched for sex and age underwent random dorsal myocutaneous flaps as described (Isenberg et al., Blood 2006; Example 2) and tissue harvested on postoperative day 7.
The necrotic area of the flap was determined as described (Isenberg et al., Blood. Nov. 2, 2006) Animals were then euthanized and flaps excised, fixed in 10% paraformaldehyde and processed for histology.
Random myocutaneous flap wound beds and/or ischemic hindlimb vastus medialis muscle was assessed at indicated time points (72 hours or 7 days post-operatively) for visible alterations in vascularity under 5× magnification. An arbitrary though strictly applied definition of countable vessels was employed to highlight both individual vessels and vascular ramifications. In any given vascular plexus visible by 5× magnification a vessel was defined as that segment traversing two branches. Visible vessels without ramifications and branches were counted once. Treatment status and genetic background of tissue images was not known by the reviewer.
Animals underwent creation of a random myocutaneous (McFarlane) flap as previously described (Isenberg et al., Blood 109:1945-1952, 2007). Some animals received either ISDN (1 mg/mL) or L-NAME (0.5 mg/ml) ad libitum in the drinking water during the post-operative interval.
Flap soft tissue units and underling wound beds were injected with control vehicle (normal saline), a CD47 morpholino or a control morpholino (10 μM) in sterile saline. Flap survival was determined as described.

Assay [2] concerns full thickness skin grafts in mice. As to the kind of experiment: Full thickness skin graft (FTSG) model. Format: in vivo, mouse. Conditions: TSP1-null grafts, agent in drinking water post-operatively. As for the experimental part:
Wild type, TSP1 null, CD47 null and CD36 null mice were matched for sex and age. Anesthesia was induced by and maintained with inhalation isoflurane. Body temperature was maintained at 37° C. with a heating pad during the procedure. The dorsal surface was clipped of hair and depilated with Nair®. The skin was then cleansed with surgical soap and alcohol and the animals draped. Using sterile technique, a 1×1 cm FTSG incorporating the panniculus carnosus, subcutaneous tissues and skin were raised. Graft dimensions were marked on the animal skin surface with the aid of a template to insure consistency in dimension. Grafts were in the midline of the animal and secured with four interrupted 5-0 nylon sutures. Sutures were so placed as to include the fascia of the dorsal musculature to provide increased immobilization of grafts to the underlying wound bed Animals were awakened and returned to individual cages and allowed ad libitum access to food and water. Trauma to FTSG was not encountered during the post-operative interval since grafts were located in the dorsal midline over the mid thoracic area and each animal was housed individually following surgery. On postoperative day three or seven, the animals were again anesthetized with inhalation isoflurane and skin graft survival evaluated.
The groups of animals utilized and the treatments received as indicated either at the time of skin grafting and/or during the post-operative interval are summarized in FIG. 21. Animals treated with ISDN (1 mg/ml) or L-NAME (0.5 mg/ml) had ad libitum access to drinking water containing the given concentrations of agents during the post-operative interval. Animals treated with a CD47 monoclonal antibody (Ab clone 301) or an isotype matched control antibody (Ig2α) underwent injection of 40 μg delivered as 10 μl of a 4 mg/ml stock in 100 μl of PBS with equal volumes injected between the wound bed and graft prior to suturing the graft in place. Animals treated with a CD47 morpholino oligonucleotide underwent injection of the FTSG and wound bed with 10 μmol/L in 250 μl of PBS with 125 μl volumes injected in the graft and wound bed, respectively prior to suturing the graft in place.
The necrotic areas of the FTSG were determined by color, refill, eschar, and the pin-prick test. The outlines of viable and nonviable areas were traced using transparent film, and the area of necrosis cut from the template and the area of skin graft necrosis versus total skin graft area determined by comparison of the original template weight to the weight of the cut template utilizing the method described by Ueda (Ueda et al., J Surg Res 80(2):200-204, 1998). Skin graft survival area was presented as the ration of graft survival on post-operative day three or seven divided by the original graft area multiplied by 100%. Additionally, digital images were then acquired using an Olympus C5500 digital camera at a fixed distance (20 cm perpendicular to the animal) under standard room lighting with autoflash and macro settings engaged and uploaded for image analysis of tissue survival with a standard software program (Image-Pro Plus, Media Cybernetics, Inc., Silver Spring, Md.). […]
Skin graft wound beds were assessed at indicated time points (72 hours or 7 days post-operatively) for visible alterations in vascularity under 5× magnification. […] Visible vessels without ramifications and branches were counted once. […]

The next assay deals with NO/cGMP signaling. Put plainly: cGMP signaling (NO-stimulated cGMP, immunoassay). The assay is classed as cell-based, human. Conditions: concentration for 50% inhibition of effect. The method, then:
Vascular cells (endothelial) or HT-1080 cells (10^4 cells/well) grown overnight in 12-well culture in SM-GM containing 2% FCS or RPMI+10% FCS respectively and then weaned off serum over 48 h before treatment with NO donors and other agents in serum/additive free medium+0.1% BSA. Intracellular cGMP levels were determined using an enzyme immunoassay (Amersham, GE Health Care, UK). In other experiments fresh washed human platelets were incubated in Tyrode's buffer and the indicated treatment agents±NO and cGMP determined.

In assay [3] the test system is VSMC and endothelial cells. Put plainly: NO-stimulated adhesion of VSMC and endothelial cells to type I collagen (Example 9). Format: cell-based. Conditions: 10 μM DEA/NO. The method, then:
Vascular cells (VSMC or endothelial) were plated at 10,000 cells/well onto 96-well plates (Maxisorb, Nunc) precoated with type I collagen (3 μg/ml). […] Plates were then washed with PBS, fixed with glutaraldehyde, stained with crystal violet, and washed. Absorbed stain was solubilized with acetic acid from fixed cells and the resulting color signal determined on a MR580Microelisa Auto Reader, (Dynatech, Alexandria, Va.) at 450 nm wavelength.

The test system of assay [4] is vascular cell outgrowth from muscle explants. As to the kind of experiment: Explant invasion assay in 3D collagen. To be noted: wild type and TSP1 null explants, NO 10 μM, peptides 10 μM, NoC1 0.1 μg/ml, day 7. The assay is classed as cell-based, mouse. As for the experimental part:
Muscle biopsies from the pectoralis major muscle of 8 to 12 week old wild type or transgenic mice were harvested and explanted into 100 μl of type I collagen gel in 96-well tissue culture plates as described (Isenberg et al., Matrix Biol 24:110-123, 2005). Following gelation, the embedded explants were overlayed with 75 μl of EGM+2% FCS in the presence or absence of a dose range of DETA/NO (0.01-1000 μM) and other indicated treatments and then incubated at 37° C. and 5% CO2 for 7 days, at which time maximum vascular cell migration through the matrix was measured.

The subject of the next assay is HUVEC. Put plainly: NO-stimulated HUVEC adhesion on type I collagen. Format: cell-based, human. Conditions: DEA/NO 10 μM. The method, then:
Cell adhesion was carried out in 96-well culture plates. After pre-coating wells with type I collagen (3 μg/ml in DPBS) harvested cells were plated at a density of 1×10^4 cells/well in medium plus 0.1% BSA and treatment agents and incubated in 5% CO2 for 1 h. Wells were washed with PBS and cells fixed with 1% glutaraldehyde for 10 min., washed and stained with 1% crystal violet for 20 min. Excess stain was rinsed away, adherent cells treated with 10% acetic acid, and plates read at 570 nm.

The test system of assay [5] is murine ASMC (WT, CD36 null, CD47 null). As to the kind of experiment: Intracellular cGMP in murine ASMC. Format: cell-based, mouse. The method, then: Murine ASMC were obtained from aortic segments harvested sterilely from C57B1/6 CD47 null or CD36 null mice as described (Ray et al., Methods Cell Sci 23:185-188, 2001) and cultured in SM-GM (Cambrex)+20% FCS. In the case of CD36 null cells, culture flasks were pre-coated with 1% gelatin prior to cell plating. Wild type C57B1/6 ASMC cultures were prepared as previously described (Isenberg et al., Matrix Biol 24:110-123, 2005). Cell culture purity was determined by immunohistochemistry staining for α-smooth muscle actin. Cells were used within passage 1 to 4 to minimize overgrowth of other cell types.
HUVEC (10^4 cells/well) grown overnight in 96-well culture plates containing full growth medium with 2% FCS and weaned in growth medium without additives and 1% FCS over 24 hrs before treatment with NO donors and other agents in SM-GM without additives+0.1% BSA. Intracellular cGMP levels were determined according to the manufacturer's instructions using an enzyme immunoassay kit (Amersham Biosciences). In other experiments ASMC from wild type and CD36 or CD47 null mice were plated onto 96-well culture plates and incubated overnight in full growth medium. They were then weaned off serum as described to SM-GM+0.1% BSA and treated with NO donor and other agents as indicated. Intracellular cyclic nucleotides were determined via immunoassay.

The subject of assay [6] is human platelets. As to the kind of experiment: Thrombin-induced human platelet aggregation. The assay is classed as cell-based. Conditions: high shear. As for the experimental part: Platelets were pelleted from platelet-rich plasma (PRP) by centrifugation for 10 minutes at 200 g. They were then washed with acid citrate dextrose (ACD) (85 mM citric acid, 65 mM sodium citrate, 100 mM glucose, pH 5.1) at a ratio of 1:7 at room temperature. After pelleting the platelets again and removing the supernatant, the platelets were resuspended in 5 mL of Tyrode's buffer (137 mM NaCl, 3 mM KCl, 12 mM NaHCO3, 0.3 mM NaHPO4, 2 mM CaCl2, 1 mM MgCl2, 5.5 mM glucose, 5 mM HEPES, 3.5 mg/mL BSA, pH 7.4). The final platelet number was adjusted to […] in 500 μl/cuvette of Tyrode's buffer.
Aggregation of human platelets under high shear conditions was assessed using a standard optical aggregometer (Lumi-Dual Aggregometer, Chrono-Log Corp., Havertown, Pa.) at 37° C. and 1200 rpm in a volume of 500 μl buffer with a final platelet concentration of 2×10^5 platelets/μl over a 5 minute interval. Pre-incubation with TSP1 and TSP1-based agents was for 15 minutes prior to addition of thrombin and/or the rapidly releasing nitric oxide donor DEA/NO. In some experiments platelets were pre-incubated with the Rap1 inhibitor GGTI-298 (10 μM) (Calbiochem, La Jolla, Calif.) for 30 minutes prior to initiating aggregation. In other high shear aggregation experiments murine platelets were prepared as above with the following modifications. Mouse blood was collected by retro-orbital bleeding of anesthetized mice using heparinized tubes. PRP was prepared and then diluted with 4 vol. of Tyrodes containing 5 mM EDTA to prevent activation. After collection by centrifugation, platelets were resuspended in 2× initial PRP volume and held at room temperature for less than 1 hour before use. Aggregation conditions consisted of 250 μL of washed platelets stirred at 1200 rpm in a Chronolog Optical aggregometer at 37° C. DEA/NO (10 μM) was added 30 seconds prior to activation and 8-BrcGMP added 15 min prior to activation with 0.2 U/ml human thrombin. Data was collected using Chronolog “Aggrolink” software. Platelet aggregation under static conditions was assessed using a spectrophotometer (Beckman DU 640, Beckman Coulter, Fullerton, Calif.) and determined as a change in absorbance at 400 nm with continuous observation over a five minute interval. The cuvette was inverted once every 60 seconds. Pre-incubation with TSP1 and TSP1-based agents was for 15 minutes prior to addition of thrombin and/or DEA/NO to minimize the formation of thrombin-serpinthrombospondin complexes (Chang & Detwiler, Arch Biochem Biophys. 299:100-104, 1992), which interfere with thrombin-platelet interactions.
Fresh human platelets were suspended in Tyrode's buffer and under low shear conditions thrombin-stimulated aggregation measured as described. Platelets were then treated with peptide C6d (1 μM)±NO (10 μM DEA/NO) and thrombin and aggregation measure.

The test system of assay [7] is human platelets. As to the kind of experiment: cGMP in human platelets. Format: cell-based. Conditions: washed human platelets in Tyrode's buffer. As for the experimental part:
Fresh human platelets at 2×10^5 platelets/μl in Tyrode's buffer or PRP were pre-incubated with the indicated agents for 15 minutes and then challenged with DEA/NO for the indicated time interval at room temperature and total cGMP determined via immunoassay (Amersham, GE Healthcare, Buckinghamshire, UK). Murine WT and TSP1-null platelets were treated with DEA/NO and cGMP flux measured.

Regarding `O=[N+]([O-])O[C@H]1CO[C@H]2[C@@H]1OC[C@H]2O[N+](=O)[O-]` [ISDN, Isosorbide dinitrate, reference compound], the flap survival entry in assay [1] is listed as “did not dramatically alter flap survival”. The FTSG survival entry in assay [2] is on record as “not substantially altered”.
As for Biotin-IGWKGFTAYR [C6e], in the assay with NO/cGMP signaling, the “cGMP signaling IC50” value was “inactive”. The “NO-stimulated adhesion to type I collagen” value in [3] is reported as “not blocked”.
Regarding FIRVVMYEGKK [7N3], the “NO-stimulated vascular cell outgrowth” value in assay [4] is on record as “inhibited vascular cell outgrowth”. For the same molecule, the “concentration of maximal inhibition of NO-stimulated endothelial cell adhesion” value in the assay with HUVEC came to 10 µM. Moreover, the “NO-stimulated endothelial cell adhesion on type I collagen” value in the assay on HUVEC (1 h) is listed as “inhibited NO-stimulated endothelial cell adhesion”. Moreover, the “NO-stimulated cGMP” value in assay [5] (CD36 null MASMC) is “completely inhibited”; in assay [5] (CD47 null MASMC) it was “did not significantly inhibit”. For the same molecule, the “concentration sufficient to significantly inhibit the NO delay” value in the assay on human platelets [6] came to 10 nM. Moreover, the “NO delay of thrombin-induced platelet aggregation” value with human platelets [6] (thrombin 0.2 U/ml, DEA/NO 10 μM) is reported as “blocked”. The “NO stimulated cGMP in platelets” value in the assay with human platelets [7] is given as “partially inhibited”.
For the molecule GAKDFTAYR [C6s], the “cGMP signaling IC50” value in the assay on NO/cGMP signaling was “inactive”. For the same molecule, the “NO-stimulated adhesion to type I collagen” value in [3] is “not blocked”.
Take VTCGGGVQKRSRL [p245]: in assay [4], the “NO-stimulated vascular cell outgrowth” value is reported as “inhibited vascular cell outgrowth”.
